The values that follow come from patent US11866450B2, “Modulators of Cystic Fibrosis Transmembrane Conductance regulator, pharmaceutical compositions, methods of treatment, and process for making the modulators” (priority 2018, dated 2024).

Structures are written as SMILES.

This assay deals with CFTR-mediated chloride transport (Homo sapiens, UniProt P13569). Format: cell-based. Conditions: enteroid cells incubated with test compound 18-24 hours, acute 10 μM forskolin and 300 nM Compound III; for Max. Activity: % of chloride transport with 3 μM Compound A, 3 μM Compound II and 300 nM acute Compound III triple combination control. The method, then:
Base medium (ADF+++) consisted of Advanced DMEM/Ham's F12, 2 mM Glutamax, 10 mM HEPES, […] penicillin/streptomycin.
Intestinal enteroid maintenance medium (IEMM) consisted of ADF+++, 1× B27 supplement, 1× N2 supplement, 1.25 mM N-acetyl cysteine, 10 mM Nicotinamide, 50 ng/mL hEGF, 10 nM Gastrin, 1 μg/mL hR-spondin-1, 100 ng/mL hNoggin, TGF-b type 1 inhibitor A-83-01, 100 μg/mL Primocin, 10 μM P38 MAPK inhibitor SB202190.
Bath 1 Buffer consisted of 1 mM MgCl2, 160 mM NaCl, 4.5 mM KCl, 10 mM HEPES, 10 mM Glucose, 2 mM CaCl2).
Chloride Free Buffer consisted of 1 mM Magnesium Gluconate, 2 mM Calcium Gluconate, 4.5 mM Potassium Gluconate, 160 mM Sodium Gluconate, 10 mM HEPES, 10 mM Glucose.
Bath1 Dye Solution consisted of Bath 1 Buffer, 0.04% Pluronic F127, 20 μM Methyl Oxonol, 30 μM CaCCinh-A01, 30 μM Chicago Sky Blue.
Chloride Free Dye Solution consisted of Chloride Free Buffer, 0.04% Pluronic F127, 20 μM Methyl Oxonol, 30 μM CaCCinh-A01, 30 μM Chicago Sky Blue.
Chloride Free Dye Stimulation Solution consisted of Chloride Free Dye Solution, 10 μM forskolin, 100 μM IBMX, and 300 nM Compound III.
Human intestinal epithelial enteroid cells were obtained from the Hubrecht Institute for Developmental Biology and Stem Cell Research, Utrecht, The Netherlands and expanded in T-Flasks as previously described (Dekkers J F, Wiegerinck C L, de Jonge H R, Bronsveld I, Janssens H M, de Winter-de Groot K M, Brandsma A M, de Jong N W M, Bijvelds M J C, Scholte B J, Nieuwenhuis E E S, van den Brink S, Clevers H, van der Ent C K, Middendorp S and M Beekman J M. A functional CFTR assay using primary cystic fibrosis intestinal organoids. Nat Med. 2013 July; 19(7):939-45).
Cells were recovered in cell recovery solution, collected by centrifugation at 650 rpm for 5 min at 4° C., resuspended in TryPLE and incubated for 5 min at 37° C. Cells were then collected by centrifugation at 650 rpm for 5 min at 4° C. and resuspended in IEMM containing 10 μM ROCK inhibitor (RI) (trans-4-[(1R)-1-aminoethyl]-N-4-pyridinylcyclohexanecarboxamide). The cell suspension was passed through a 40 μm cell strainer and resuspended at 1×10^6 cells/mL in IEMM containing 10 μM RI. Cells were seeded at 5000 cells/well into multi-well plates and incubated for overnight at 37° C., 95% humidity and 5% CO2 prior to assay.
Enteroid cells were incubated with test compound in IEMM for 18-24 hours at 37° C., 95% humidity and 5% CO2. Following compound incubations, a membrane potential dye assay was employed using a FLIPR Tetra to directly measure the potency and efficacy of the test compound on CFTR-mediated chloride transport following acute addition of 10 μM forskolin and 300 nM Compound III. Briefly, cells were washed 5 times in Bath 1 Buffer. Bath 1 Dye Solution was added and the cells were incubated for 25 min at room temperature. Following dye incubation, cells were washed 3 times in Chloride Free Dye Solution. Chloride transport was initiated by addition of Chloride Free Dye Stimulation Solution and the fluorescence signal was read for 15 min. The CFTR-mediated chloride transport for each condition was determined from the AUC of the fluorescence response to acute forskolin and 300 nM Compound III stimulation. Chloride transport was then expressed as a percentage of the chloride transport following treatment with 3 μM Compound A, 3 μM Compound II and 300 nM acute Compound III triple combination control (% Activity).

A word on the EC50: it is the midpoint of the concentration-response curve.

CFTR-mediated chloride transport, sequence (P13569 whole entry, looked up): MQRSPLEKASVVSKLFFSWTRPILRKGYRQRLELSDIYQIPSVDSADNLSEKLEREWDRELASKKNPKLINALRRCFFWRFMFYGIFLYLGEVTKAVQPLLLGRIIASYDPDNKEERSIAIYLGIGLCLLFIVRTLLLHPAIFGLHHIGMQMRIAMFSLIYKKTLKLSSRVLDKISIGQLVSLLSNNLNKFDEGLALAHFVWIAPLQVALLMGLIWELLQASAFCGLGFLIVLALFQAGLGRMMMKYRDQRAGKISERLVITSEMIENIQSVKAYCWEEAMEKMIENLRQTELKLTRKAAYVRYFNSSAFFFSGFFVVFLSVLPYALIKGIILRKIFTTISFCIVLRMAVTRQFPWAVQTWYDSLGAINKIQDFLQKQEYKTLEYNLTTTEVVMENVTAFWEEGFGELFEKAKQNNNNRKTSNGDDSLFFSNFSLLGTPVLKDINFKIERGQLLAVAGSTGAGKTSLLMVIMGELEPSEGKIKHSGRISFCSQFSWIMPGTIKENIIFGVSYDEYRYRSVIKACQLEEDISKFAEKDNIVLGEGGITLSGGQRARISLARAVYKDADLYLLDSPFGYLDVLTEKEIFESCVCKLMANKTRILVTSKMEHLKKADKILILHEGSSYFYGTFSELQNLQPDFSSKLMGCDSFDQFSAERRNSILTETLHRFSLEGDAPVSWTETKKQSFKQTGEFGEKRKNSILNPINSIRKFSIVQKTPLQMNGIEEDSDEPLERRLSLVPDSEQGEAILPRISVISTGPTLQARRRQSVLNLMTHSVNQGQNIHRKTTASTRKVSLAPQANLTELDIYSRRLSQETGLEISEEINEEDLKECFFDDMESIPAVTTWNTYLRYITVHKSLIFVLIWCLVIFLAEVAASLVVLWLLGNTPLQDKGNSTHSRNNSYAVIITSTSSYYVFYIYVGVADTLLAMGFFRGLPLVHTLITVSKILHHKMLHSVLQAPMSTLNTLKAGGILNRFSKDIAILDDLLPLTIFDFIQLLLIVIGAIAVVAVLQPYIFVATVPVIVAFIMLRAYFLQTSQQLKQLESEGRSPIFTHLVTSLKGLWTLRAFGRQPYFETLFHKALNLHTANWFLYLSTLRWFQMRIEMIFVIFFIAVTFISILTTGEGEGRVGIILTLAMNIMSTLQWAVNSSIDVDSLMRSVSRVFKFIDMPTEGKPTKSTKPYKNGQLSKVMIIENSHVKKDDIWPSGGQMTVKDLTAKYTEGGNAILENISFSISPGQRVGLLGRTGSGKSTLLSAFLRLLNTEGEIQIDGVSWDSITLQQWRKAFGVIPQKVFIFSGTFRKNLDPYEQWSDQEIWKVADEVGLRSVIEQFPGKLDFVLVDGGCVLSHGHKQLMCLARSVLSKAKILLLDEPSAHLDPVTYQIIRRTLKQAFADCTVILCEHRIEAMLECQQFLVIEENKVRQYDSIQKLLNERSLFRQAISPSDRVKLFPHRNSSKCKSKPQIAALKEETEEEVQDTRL

`Cc1c2cnn1CCCC1CN(c3nc(-n4ccc(OCC(C)(C)C(F)(F)F)n4)ccc3C(=O)NS2(=O)=O)C(C)(C)C1` (stereo not shown) [Compound 282, 20,20,22-trimethyl-4-[3-(3,3,3-trifluoro-2,2-dimethylpropoxy)-1H-pyrazol-1-yl]-10λ^6-thia-1,3,9,13,14-pentaazatetracyclo[16.2.1.111,14.02,7]docosa-2,4,6,11(22),12-pentaene-8,10,10-trione]: the EC50 is greater than 3 µM and the “Max. Activity” value is “+ (+ is <30%)”.

As for `CC1CCC2CN(c3nc(-n4ccc(OCCC5(C(F)(F)F)CC5)n4)ccc3C(=O)NS(=O)(=O)c3cccc(n3)N1)C(C)(C)C2` (stereo not shown) [Compound 36, 12,12,17-trimethyl-8-(3-{2-[1-(trifluoromethyl)cyclopropyl]ethoxy}-1H-pyrazol-1-yl)-2λ^6-thia-3,9,11,18,23-pentaazatetracyclo[17.3.1.111,14.05,10]tetracosa-1(23),5(10),6,8,19,21-hexaene-2,2,4-trione], the EC50 was less than 1 µM and the “Max. Activity” value was “+++ (+++ is >60%)”.

For `CC1(C)CC[C@H]2CCCOc3cccc(c3)S(=O)(=O)NC(=O)c3ccc(-n4ccc(OCCC5(C(F)(F)F)CC5)n4)nc3N21` (single isomer, unassigned) [Compound 8, 12,12-dimethyl-8-(3-{2-[1-(trifluoromethyl)cyclopropyl]ethoxy}-1H-pyrazol-1-yl)-19-oxa-2λ^6-thia-3,9,11-triazatetracyclo[18.3.1.05,10.011,15]tetracosa-1(24),5(10),6,8,20,22-hexaene-2,2,4-trione], the EC50 is greater than 3 µM and the “Max. Activity” value is listed as “+ (+ is <30%)”.

On to `CC1CCC2CN(c3nc(N4CCN(CCC(C)(C)C)C4=O)ccc3C(=O)NS(=O)(=O)c3cccc(n3)N1)C(C)(C)C2` (stereo not shown) [Compound 210, 8-[3-(3,3-dimethylbutyl)-2-oxoimidazolidin-1-yl]-12,12,17-trimethyl-2λ^6-thia-3,9,11,18,23-pentaazatetracyclo[17.3.1.111,14.05,10]tetracosa-1(22),5,7,9,19(23),20-hexaene-2,2,4-trione], for which the EC50 was less than 1 µM and the “Max. Activity” value is reported as “++ (++ is 30-60%)”.

With `CC1(C)C[C@H]2CCCNc3cccc(n3)S(=N)(=O)NC(=O)c3ccc(-n4ccc(OCCC5(C(F)(F)F)CC5)n4)nc3N1C2` (single isomer, unassigned) [Compound 267, 2-imino-12,12-dimethyl-8-(3-{2-[1-(trifluoromethyl)cyclopropyl]ethoxy}-1H-pyrazol-1-yl)-2λ^6-thia-3,9,11,18,23-pentaazatetracyclo[17.3.1.111,14.05,10]tetracosa-1(23),5,7,9,19,21-hexaene-2,4-dione], the EC50 is less than 1 µM and the “Max. Activity” value was “+++ (+++ is >60%)”.

Consider `CC1(C)CC[C@H]2CCCOc3cccc(c3)S(=O)(=O)NC(=O)c3ccc(-n4ccc(OCCC5(C(F)(F)F)CC5)n4)nc3N21` (single isomer, unassigned) [Compound 7, 12,12-dimethyl-8-(3-{2-[1-(trifluoromethyl)cyclopropyl]ethoxy}-1H-pyrazol-1-yl)-19-oxa-2λ^6-thia-3,9,11-triazatetracyclo[18.3.1.05,10.011,15]tetracosa-1(24),5(10),6,8,20,22-hexaene-2,2,4-trione], for which the EC50 is less than 1 µM and the “Max. Activity” value is on record as “++ (++ is 30-60%)”.

As to `CC1(C)C[C@@H]2CCCNc3cccc(n3)S(=O)(=O)NC(=O)c3ccc(N4CCN(CCC56CC7CC(CC(C7)C5)C6)C4=O)nc3N1C2` [Compound 228, (14S)-8-{3-[2-(Adamantan-1-yl)ethyl]-2-oxoimidazolidin-1-yl}-12,12-dimethyl-2λ^6-thia-3,9,11,18,23-pentaazatetracyclo[17.3.1.111,14.05,10]tetracosa-1(22),5,7,9,19(23),20-hexaene-2,2,4-trione], the EC50 was less than 1 µM and the “Max. Activity” value is on record as “++ (++ is 30-60%)”.

As to `CC1(C)CC[C@H]2CCCNc3cccc(n3)S(=O)(=O)NC(=O)c3ccc(-n4ccc(OCCC5(C(F)(F)F)CC5)n4)nc3N21` [Compound 34, (15R)-12,12-dimethyl-8-(3-{2-[1-(trifluoromethyl)cyclopropyl]ethoxy}-1H-pyrazol-1-yl)-2λ^6-thia-3,9,11,19,24-pentaazatetracyclo[18.3.1.05,10.011,15]tetracosa-1(23),5,7,9,20(24),21-hexaene-2,2,4-trione], the EC50 is less than 1 µM and the “Max. Activity” value is “+++ (+++ is >60%)”.

With `Cc1c2cnn1CCC[C@@H]1CN(c3nc(-n4ccc(OCCC5(C(F)(F)F)CC5)n4)ccc3C(=O)NS2(=O)=O)C(C)(C)C1` (single isomer, unassigned) [Compound 111], the EC50 was less than 1 µM and the “Max. Activity” value was “+++ (+++ is >60%)”.

For the compound `CC1(C)C[C@H]2CCNc3cccc(n3)S(=O)(=O)NC(=O)c3ccc(-n4ccc(OCCC5(C(F)(F)F)CC5)n4)nc3N1C2` (single isomer, unassigned) [Compound 27, 7,7-dimethyl-11-(3-{2-[1-(trifluoromethyl)cyclopropyl]ethoxy}-1H-pyrazol-1-yl)-17λ^6-thia-2,8,10,16,22-pentaazatetracyclo[16.3.1.15,8.09,14]tricosa-1(21),9,11,13,18(22),19-hexaene-15,17,17-trione], the EC50 is less than 1 µM and the “Max. Activity” value is “+++ (+++ is >60%)”.

`CC1(C)C[C@@H]2CCCNc3cccc(n3)S(=O)(=O)NC(=O)c3ccc(N4CC[C@H](OCCC56CC7CC(CC(C7)C5)C6)C4=O)nc3N1C2` (single isomer, unassigned) [Compound 240]: the EC50 was less than 1 µM and the “Max. Activity” value is reported as “++ (++ is 30-60%)”.

Consider `CC1(C)C[C@H]2CCCCNc3cccc(n3)S(=O)(=O)NC(=O)c3ccc(-n4cc(OCCC5(C(F)(F)F)CC5)cn4)nc3N1C2` (single isomer, unassigned) [Compound 83, 12,12-dimethyl-8-(4-{2-[1-(trifluoromethyl)cyclopropyl]ethoxy}-1H-pyrazol-1-yl)-2λ^6-thia-3,9,11,19,24-pentaazatetracyclo[18.3.1.111,14.05,10]pentacosa-1(23),5,7,9,20(24),21-hexaene-2,2,4-trione], for which the EC50 was less than 1 µM and the “Max. Activity” value was “++ (++ is 30-60%)”.

As for `CC1(C)C[C@@H]2CCCNc3cccc(n3)S(=O)(=O)NC(=O)c3ccc(N4CC[C@H](OCCC5C6(CC6)C56CC6)C4=O)nc3N1C2` (single isomer, unassigned) [Compound 180], the EC50 was less than 1 µM and the “Max. Activity” value is listed as “+++ (+++ is >60%)”.

Turning to `CC1(C)C[C@@H]2CN1c1nc(-n3ccc(OCCC4C5(CC5)C45CC5)n3)ccc1C(=O)NS(=O)(=O)c1cccc(n1)NCCO2` (single isomer, unassigned) [Compound 197, 8-[3-(2-{dispiro[2.0.2.1]heptan-7-yl}ethoxy)-1H-pyrazol-1-yl]-12,12-dimethyl-15-oxa-2λ^6-thia-3,9,11,18,23-pentaazatetracyclo[17.3.1.111,14.05,10]tetracosa-1(23),5(10),6,8,19,21-hexaene-2,2,4-trione], the EC50 was less than 1 µM and the “Max. Activity” value is recorded as “+++ (+++ is >60%)”.
